Results taken from patent publication US7754896B2, “Indol-alanine derivatives as selective S1P4-agonists” (Novartis AG, priority 2004, dated 2010).

Biological target: T1, S1P5 (Homo sapiens, UniProt Q9H228)
T1 construct: expressed in transfected cells
Experiment: GTPγS binding assay, S1P5
Format: biochemical
Conditions: CHO cells expressing S1P5
Text: The human S1P5 (GI: 30171332 or GenBank™ accession number AY262689, TREMBL: Q9H228) is cloned by a PCR based method. Lung and spleen cDNA (marathon cDNA) is obtained from BD Biosciences Chlontech (BD Biosciences Chlontech, Palo Alto, Calif. 94303, USA); genomic DNA is isolated from HeLa cells using standard procedures. Following oligonucleotides are used for the PCR reaction: forward primer CACCATGGAGTCGGGGCTGCTGCG (−4 to 20, GenBank™ accession number AY262689) and reverse primer 5′-TCAGTCTGCAGCCGGTTCTGATACCAGAGTC (1197 to 1131, AY262689), the initiation of the translation (ATG) and the stop codon are underlined. The PCR is performed In the presence of 0.2-0.4 μg cDNA, 1× reaction buffer (10× PfuTurbo DNA polymerase buffer, Stratagene, La Jolla, Calif. 92037, USA), 0.5 μM primers, 0.25 mM dNTP's and 2.5 units PfuTurbo DNA polymerase (Stratagene), a first step at 95° C. for 2 min, 30 cycles (30 sec at 95° C., 30 sec at 60° C. and 90 sec at 72° C.) and final step of 10 min at 72° C. The amplified product of around 1100 bp is analyzed by standard agarose gel-electrophoresis. […]
Membrane proteins are prepared from wild type CHO-K1 and the CHO cell clones expressing human S1P4. […] The protein concentration is determined using the Bio Rad Protein Assay and human IgG as standard. […]

T1 sequence (Q9H228 whole entry): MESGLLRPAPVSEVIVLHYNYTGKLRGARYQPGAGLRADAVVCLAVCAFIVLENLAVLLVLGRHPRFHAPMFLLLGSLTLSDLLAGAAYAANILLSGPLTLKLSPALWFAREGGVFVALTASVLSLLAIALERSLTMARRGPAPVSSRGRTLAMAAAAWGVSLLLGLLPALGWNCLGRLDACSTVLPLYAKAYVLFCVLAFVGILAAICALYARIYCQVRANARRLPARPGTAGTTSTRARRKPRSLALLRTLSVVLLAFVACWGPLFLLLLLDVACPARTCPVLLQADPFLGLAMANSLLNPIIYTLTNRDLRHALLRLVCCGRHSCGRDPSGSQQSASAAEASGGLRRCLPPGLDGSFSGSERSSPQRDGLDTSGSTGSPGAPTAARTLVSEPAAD

SMILES: NC(CNC(=O)c1cc2c(-c3ccccc3Cc3ccccc3)cccc2[nH]1)C(=O)O (stereo not shown) [Example 2]
- EC50: > 10 µM
